Structures can show the parent of a compound that is named as a salt.
How the values were obtained:
Assay type in all cases: biochemical
[1] = target: T1, human MMP19 catalytic domain (Homo sapiens, UniProt Q99542); assay: Isolated enzyme assay MMP19 (fluorogenic substrate); conditions: IC50 (MMP19) divided by IC50 (MMP12)
T1 construct: Recombinant human MMP19 catalytic domain; made in house
Procedure: Recombinant human MMP19 catalytic domain may be expressed and purified as described by Parkar A. A. et al, (2000), Protein Expression and Purification, 20:152. The purified enzyme can be used to monitor inhibitors of activity as follows: MMP19 (40 ng/ml final concentration) is incubated for 120 minutes at 35° C. with the synthetic substrate Mca-Pro-Leu-Ala-Nva-Dpa-Ala-Arg-NH2 (5 μM) in assay buffer (0.1M “Tris-HCl” (trade mark) buffer, pH 7.3 containing 0.1M NaCl, 20 mM CaCl2, 0.020 mM ZnCl and 0.05% (w/v) “Brij 35” (trade mark) detergent) in the presence (5 concentrations) or absence of inhibitors. Activity is determined by measuring the fluorescence at λex 320 nm and λem 405 nm. Percent inhibition is calculated as follows: % Inhibition is equal to the [Fluorescenceplus inhibitor−Fluorescencebackground] divided by the [Fluorescenceminus inhibitor−Fluorescencebackground].

[2] = target: T2, human MMP14 catalytic domain (Homo sapiens, UniProt P50281); assay: Isolated enzyme assay MMP14 (fluorogenic substrate); conditions: IC50 (MMP14) divided by IC50 (MMP12)
T2 construct: Recombinant human MMP14 catalytic domain; made in house
Procedure: Recombinant human MMP14 catalytic domain may be expressed and purified as described by Parkar A. A. et al, (2000), Protein Expression and Purification, 20, 152. The purified enzyme can be used to monitor inhibitors of activity as follows: MMP14 (10 ng/ml final concentration) is incubated for 60 minutes at room temperature with the synthetic substrate Mca-Pro-Cha-Gly-Nva-His-Ala-Dpa-NH2 (10 μM) in assay buffer (0.1M “Tris-HCl” (trade mark) buffer, pH 7.5 containing 0.1M NaCl, 20 mM CaCl2, 0.020 mM ZnCl and 0.05% (w/v) “Brij 35” (trade mark) detergent) in the presence (5 concentrations) or absence of inhibitors. Activity is determined by measuring the fluorescence at λex 320 nm and λem 405 nm. Percent inhibition is calculated as follows: % Inhibition is equal to the [Fluorescenceplus inhibitor−Fluorescencebackground] divided by the [Fluorescenceminus inhibitor−Fluorescencebackground].

[3] = target: T3, human MMP12 catalytic domain (Homo sapiens, UniProt P39900); assay: Isolated enzyme assay MMP12 (fluorogenic substrate); conditions: recombinant human MMP12 catalytic domain, 60 minutes at room temperature; read-out: hMMP12 IC50
T3 construct: Recombinant human MMP12 catalytic domain; made in house
T3 sequence (P39900 106-263 limits assumed): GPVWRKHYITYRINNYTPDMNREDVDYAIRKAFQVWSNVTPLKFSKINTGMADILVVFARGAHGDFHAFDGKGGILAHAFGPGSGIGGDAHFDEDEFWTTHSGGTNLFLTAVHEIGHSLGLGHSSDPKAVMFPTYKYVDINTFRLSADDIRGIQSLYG
Procedure: Recombinant human MMP12 catalytic domain may be expressed and purified as described by Parkar A. A. et al, (2000), Protein Expression and Purification, 20, 152. The purified enzyme can be used to monitor inhibitors of activity as follows: MMP12 (50 ng/ml final concentration) is incubated for 60 minutes at room temperature with the synthetic substrate Mca-Pro-Cha-Gly-Nva-His-Ala-Dpa-NH2 (10 μM) in assay buffer (0.1M “Tris-HCl” (trade mark) buffer, pH 7.3 containing 0.1M NaCl, 20 mM CaCl2, 0.020 mM ZnCl and 0.05% (w/v) “Brij 35” (trade mark) detergent) in the presence (10 concentrations) or absence of inhibitors. Activity is determined by measuring the fluorescence at λex 320 nm and λem 405 nm. Percent inhibition is calculated as follows: % Inhibition is equal to the [Fluorescenceplus inhibitor−Fluorescencebackground] divided by the [Fluorescenceminus inhibitor−Fluorescencebackground].

hMMP8 = target: T4, hMMP8 (Homo sapiens, UniProt P22894); assay: Isolated enzyme assay MMP8 (fluorogenic substrate); conditions: IC50 (MMP8) divided by IC50 (MMP12)
T4 construct: purchased Calbiochem
T4 sequence (P22894 101-467): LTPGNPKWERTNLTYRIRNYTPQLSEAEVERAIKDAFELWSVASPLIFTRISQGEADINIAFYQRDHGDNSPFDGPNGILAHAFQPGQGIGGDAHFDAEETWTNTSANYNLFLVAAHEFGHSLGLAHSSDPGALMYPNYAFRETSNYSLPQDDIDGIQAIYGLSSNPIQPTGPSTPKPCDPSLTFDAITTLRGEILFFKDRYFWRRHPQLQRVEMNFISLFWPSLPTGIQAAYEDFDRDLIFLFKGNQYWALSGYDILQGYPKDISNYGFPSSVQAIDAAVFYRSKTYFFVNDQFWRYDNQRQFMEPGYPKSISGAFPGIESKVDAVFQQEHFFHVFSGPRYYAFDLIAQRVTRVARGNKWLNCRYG
Procedure: Purified pro-MMP8 is purchased from Calbiochem. The enzyme (at 10 μg/ml) is activated by p-amino-phenyl-mercuric acetate (APMA) at 1 mM for 2.5 h, 35° C. The activated enzyme can be used to monitor inhibitors of activity as follows: MMP8 (200 ng/ml final concentration) is incubated for 90 minutes at 35° C. (80% H2O) with the synthetic substrate Mca-Pro-Cha-Gly-Nva-His-Ala-Dpa-NH2 (12.5 μM) in assay buffer (0.1M “Tris-HCl” (trade mark) buffer, pH 7.5 containing 0.1M NaCl, 30 mM CaCl2, 0.040 mM ZnCl and 0.05% (w/v) “Brij 35” (trade mark) detergent) in the presence (10 concentrations) or absence of inhibitors. Activity is determined by measuring the fluorescence at λex 320 nm and λem 405 nm. Percent inhibition is calculated as follows: % Inhibition is equal to the [Fluorescenceplus inhibitor−Fluorescencebackground] divided by the [Fluorescenceminus inhibitor−Fluorescencebackground].

[4] = system: human MMP9 catalytic domain; assay: Isolated enzyme assay MMP9 (fluorogenic substrate); conditions: IC50 (MMP9) divided by IC50 (MMP12)
Procedure: Recombinant human MMP9 catalytic domain was expressed and then purified by Zn chelate column chromatography followed by hydroxamate affinity column chromatography. The enzyme can be used to monitor inhibitors of activity as follows: MMP9 (5 ng/ml final concentration) is incubated for 30 minutes at RT with the synthetic substrate Mca-Pro-Cha-Gly-Nva-His-Ala-Dpa-NH2 (5 μM) in assay buffer (0.1M “Tris-HCl” (trade mark) buffer, pH 7.3 containing 0.1M NaCl, 20 mM CaCl2, 0.020 mM ZnCl and 0.05% (w/v) “Brij 35” (trade mark) detergent) in the presence (10 concentrations) or absence of inhibitors. Activity is determined by measuring the fluorescence at λex 320 nm and λem 405 nm. Percent inhibition is calculated as follows: […]
% Inhibition is equal to the [Fluorescenceplus inhibitor−Fluorescencebackground] divided by the [Fluorescenceminus inhibitor−Fluorescencebackground].
A protocol for testing against other matrix metalloproteinases, including MMP9, using expressed and purified pro MMP is described, for instance, by C. Graham Knight et al., (1992) FEBS Lett., 296 (3), 263-266.

T1 sequence (Q99542 98-256 limits assumed): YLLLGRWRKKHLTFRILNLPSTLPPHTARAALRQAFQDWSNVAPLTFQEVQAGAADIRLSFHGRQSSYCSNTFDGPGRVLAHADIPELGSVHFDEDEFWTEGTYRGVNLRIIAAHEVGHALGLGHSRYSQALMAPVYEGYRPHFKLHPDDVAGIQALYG

| Selectivity for inhibition of hMMP12 over: hMMP19 [1] | Selectivity for inhibition of hMMP12 over: hMMP14 [2] | IC50 [3] | Selectivity for inhibition of hMMP12 over: hMMP8 (hMMP8) | Selectivity for inhibition of hMMP12 over: hMMP9 [4] | SMILES |
| --- | --- | --- | --- | --- | --- |
| >2882 | >3560 | 8.3 nM | >1168 | >795 | CN(Cc1ccc(Oc2cnc(C(F)(F)F)nc2)cc1)S(=O)(=O)C[C@@]1(C2CC2)NC(=O)NC1=O [Example 4, 1-[(4S)-4-Cyclopropyl-2,5-dioxoimidazolidin-4-yl]-N-methyl-N-[(4-{[2-(trifluoromethyl)pyrimidin-5-yl]oxy}phenyl)methyl]methanesulfonamide] |
| >588 | >588 | 17 nM | 417 | 523 | CCc1ncc(Oc2ccc(CN(C)S(=O)(=O)C[C@@]3(C4CC4)NC(=O)NC3=O)cc2)cn1 [Example 5, 1-[(4S)-4-Cyclopropyl-2,5-dioxoimidazolidin-4-yl]-N-({4-[(2-ethylpyrimidin-5-yl)oxy]phenyl}methyl)-N-methylmethanesulfonamide] |
| – | – | 63.7 nM | 657 | 1530 | O=C1NC(=O)[C@](CS(=O)(=O)NCc2ccc(Oc3cnc(C(F)(F)F)nc3)cc2)(C2CC2)N1 [Example 6, 1-[(4S)-4-Cyclopropyl-2,5-dioxoimidazolidin-4-yl]-N-[(4-{[2-(trifluoromethyl)pyrimidin-5-yl]oxy}benzyl)]methane sulfonamide] |
| >330 | >330 | 151 nM | 202 | 261 | C[C@]1(CS(=O)(=O)NCc2ccc(Oc3ccccc3)cc2)NC(=O)NC1=O [reference compound] |

The next lines start with the compound.

| SMILES | Selectivity for inhibition of hMMP12 over: hMMP19 [1] | Selectivity for inhibition of hMMP12 over: hMMP14 [2] | IC50 [3] | Selectivity for inhibition of hMMP12 over: hMMP8 (hMMP8) | Selectivity for inhibition of hMMP12 over: hMMP9 [4] |
| --- | --- | --- | --- | --- | --- |
| CN(Cc1ccc(Oc2cncnc2)cc1)S(=O)(=O)C[C@@]1(C2CC2)NC(=O)NC1=O [Example 1, 1-[(4S)-4-Cyclopropyl-2,5-dioxoimidazolidin-4-yl]-N-methyl-N-{[4-(pyrimidin-5-yloxy)phenyl]methyl}methanesulfonamide trifluoroacetic acid salt] | >525 | >525 | 19 nM | 320 | >525 |
| CN(Cc1ccc(Oc2cnc(C3CC3)nc2)cc1)S(=O)(=O)C[C@@]1(C2CC2)NC(=O)NC1=O [Example 2, 1-[(4S)-4-Cyclopropyl-2,5-dioxoimidazolidin-4-yl]-N-({4-[(2-cyclopropylpyrimidin-5-yl)oxy]phenyl}methyl)-N-methylmethanesulfonamide] | >2320 | >2320 | 4.3 nM | 2120 | 1440 |
| Cc1ncc(Oc2ccc(CN(C)S(=O)(=O)C[C@@]3(C4CC4)NC(=O)NC3=O)cc2)cn1 [Example 3, 1-[(4S)-4-Cyclopropyl-2,5-dioxoimidazolidin-4-yl]-N-methyl-N-({4-[(2-methylpyrimidin-5-yl)oxy]phenyl}methyl)methanesulfonamide] | >2800 | >7142 | 14 nM | >628 | 857 |

From US8183251B2, “Hydantoin compounds and pharmaceutical compositions thereof” (AstraZeneca AB, priority 2006, dated 2012)
